Experiment [1] concerns the target T1, HIV-1 Vif-Cul5 interaction (Human immunodeficiency virus type 1 group M subtype B, UniProt P69723).
T1 construct: expressed in transfected cells; host or cells: 293T
Briefly: Vif-HA immunoprecipitation and immunoblot for Cul5, ElonginB, ElonginC in Vif-expressing 293T cells. Type of experiment: cell-based. How it is done: The Cul5-Vif E3 ubiquitin ligase binds A3G and brings it in close proximity with the E2 ubiquitin conjugating enzyme. Polyubiquitinated A3G is recognized by the proteasome and subsequently degraded. […] 293T cells were transfected with Vif-HA expression vectors as previously described and treated with the indicated amounts of TPEN. Vif-HA was immunoprecipitated and eluted materials were then analyzed by SDS-PAGE and immunoblotting for Cul5, Vif-HA, ElonginB, and ElonginC. […] 293T cells were transfected with Vif-HA and treated with the indicated amounts of TPEN. Cell lysates were harvested and analyzed by SDS-PAGE and immunoblotting for Cul5 and Vif-HA.
(§1) Medium was removed 12 h prior to harvesting cells and replaced with either fresh medium alone or medium containing the indicated concentration of TPEN (Sigma). After a 12-h incubation, the cells were harvested for immunoprecipitation and immunoblot analysis, or the medium was collected for MAGI assay.
Transfected 293T cells were harvested, washed twice with cold PBS, and lysed in lysis buffer (50 mM Tris, pH 7.5, with 150 mM NaCl, 1% Triton X-100, and complete protease inhibitor cocktail tablets) at 4° C. for 1 h, then centrifuged at 10,000×g for 30 min. For myc-tag immunoprecipitation, precleared cell lysates were mixed with anti-myc antibody (Upstate) and incubated with protein G at 4° C. for 3 h. For HA tag immunoprecipitation, precleared cell lysates were mixed with anti-HA antibody-conjugated agarose beads (Roche) and incubated at 4° C. for 3 h. Samples were then washed three times with washing buffer (20 mM Tris, pH 7.5, with 100 mM NaCl, 0.1 mM EDTA, and 0.05% Tween-20). The beads were eluted with elution buffer (0.1 M glycine-HCl, pH 2.0) or 2× loading buffer. The eluted materials were then analyzed by SDS-PAGE and immunoblotting as previously described (Yu et al. (2003) (supra)).
For orientation: In western blotting, separated proteins are transferred to a membrane and probed.

The subject of experiment [2] is SIVagm Vif-Cul5 interaction. Briefly: SIVagm Vif immunoprecipitation and immunoblot in 293T cells. Type of experiment: cell-based. Particulars: 4 μM TPEN vs vehicle DMSO. The procedure: (§2) Hydrophobic residues are represented by a Phi (Φ). […] 293T cells were transfected with the indicated SIV Vif expression vectors and treated with 4 μM TPEN. Cell lysates were immunoprecipitated and analyzed by SDS-PAGE followed immunoblotting for Cul5, HA, ElonginB, and ElonginC. […] 293T cells were transfected with SOCS-3-HA and treated with 4 μM TPEN. Cell lysates were immunoprecipitated and analyzed by SDS-PAGE and immunoblotting.
as §1
(§3) Transfected 293T cells were harvested, washed twice with cold PBS, and lysed in lysis buffer (50 mM Tris, pH 7.5, with 150 mM NaCl, 1% Triton X-100, and complete protease inhibitor cocktail tablets) at 4° C. for 1 h, then centrifuged at 10,000×g for 30 min. For myc-tag immunoprecipitation, precleared cell lysates were mixed with anti-myc antibody (Upstate) and incubated with protein G at 4° C. for 3 h. […] The eluted materials were then analyzed by SDS-PAGE and immunoblotting as previously described (Yu et al. (2003) (supra)). […]

Experiment [3] deals with SIVsyk Vif-Cul5 interaction. Briefly: SIVsyk Vif immunoprecipitation and immunoblot in 293T cells. The experiment is classed as cell-based. To be noted: 4 μM TPEN vs vehicle DMSO. How it is done:
as §2, §1, §3

The target of another experiment is T2, Cul5-SOCS-3 E3 ligase (Homo sapiens, UniProt O14543).
T2 construct: expressed in transfected cells; host or cells: 293T
T2 sequence (O14543 1-225): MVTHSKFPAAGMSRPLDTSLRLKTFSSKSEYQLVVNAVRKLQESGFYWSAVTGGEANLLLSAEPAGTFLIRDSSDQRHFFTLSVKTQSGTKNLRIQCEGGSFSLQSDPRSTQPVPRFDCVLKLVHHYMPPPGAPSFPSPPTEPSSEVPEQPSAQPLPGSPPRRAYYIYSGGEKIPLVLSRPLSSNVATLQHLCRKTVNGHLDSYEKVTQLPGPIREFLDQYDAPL
In words: SOCS-3-HA immunoprecipitation and immunoblot in 293T cells. Type of experiment: cell-based. Particulars: 4 μM TPEN vs control DMSO. The procedure: as §2, §1, §3

Experiment [4] relates to HIV-1 Vif mediated A3G degradation. In words: Vif mediated A3G degradation in transfected 293T cells (immunoblot). The experiment is classed as cell-based. The procedure: (§4) 293T cells were transfected with the indicated plasmids in the presence of 4 μM TPEN or control vehicle. Cell lysates were analyzed for A3G degradation by SDS-PAGE followed by immunoblotting for A3G-HA, Vif-myc, and ribosomal p19 as a loading control. […] 293T cells were transfected with the indicated plasmids and treated with […] TPEN or control vehicle. Vif-HA was immunoprecipitated from prepared lysates. Lysates were analyzed by SDS-PAGE followed by immunoblotting for Vif-HA and A3G-myc. […] Cells were infected with WT or ΔVif NL4-3 virus in the presence of A3G-myc and treated with 4 μM TPEN or DMSO. Cells were harvested and virus was isolated from the supernatant by ultracentrifugation and analyzed by SDS PAGE and immunoblotting against Vif, myc, and p24. […] Adenovirus E4orf6 mediated p53 degradation is not affected by 4 μM TPEN. […] Cells were harvested and analyzed for p53 degradation by SDS-PAGE followed by immunoblotting for p53, E4orf6-myc, and ribosomal p19 as a loading control. […]
(§5) Transfected 293T cells were harvested, washed twice with cold PBS, and lysed in lysis buffer (50 mM Tris, pH 7.5, with 150 mM NaCl, 1% Triton X-100, and complete protease inhibitor cocktail tablets) at 4° C. for 1 h, then centrifuged at 10,000×g for 30 min. […] The eluted materials were then analyzed by SDS-PAGE and immunoblotting as previously described (Yu et al. (2003) (supra)). […]

The next experiment concerns the target T3, Vif-A3G interaction (Human immunodeficiency virus type 1 group M subtype B, UniProt P69723).
T3 construct: expressed in transfected cells; host or cells: 293T
Briefly: Vif-A3G co-immunoprecipitation in 293T cells. Type of experiment: cell-based, HIV-1. To be noted: 4 μM TPEN vs control vehicle. How it is done: as §4, §5

Experiment [5] has as its system virion incorporation of A3G. Briefly: A3G levels in cells and virions, WT or ΔVif NL4-3 virus with A3G-myc. Particulars: 4 μM TPEN vs DMSO. The experiment is classed as cell-based, HIV-1. The procedure:
293T cells were transfected with the indicated plasmids in the presence of 4 μM TPEN or control vehicle. Cell lysates were analyzed for A3G degradation by SDS-PAGE followed by immunoblotting for A3G-HA, Vif-myc, and ribosomal p19 as a loading control. […] 293T cells were transfected with the indicated plasmids and treated with […] TPEN or control vehicle. Vif-HA was immunoprecipitated from prepared lysates. Lysates were analyzed by SDS-PAGE followed by immunoblotting for Vif-HA and A3G-myc. […] Cells were infected with WT or ΔVif NL4-3 virus in the presence of A3G-myc and treated with 4 μM TPEN or DMSO. Cells were harvested and virus was isolated from the supernatant by ultracentrifugation and analyzed by SDS PAGE and immunoblotting against Vif, myc, and p24. […] Adenovirus E4orf6 mediated p53 degradation is not affected by 4 μM TPEN. 293T cells were transfected with p53 and E4orf6-myc expression vectors in the presence of 4 μM TPEN or control vehicle. Cells were harvested and analyzed for p53 degradation by SDS-PAGE followed by immunoblotting for p53, E4orf6-myc, and ribosomal p19 as a loading control.
Medium was removed 12 h prior to harvesting cells and replaced with either fresh medium alone or medium containing the indicated concentration of TPEN (Sigma). […]

For experiment [6], the system named is Rbx function (E4orf6 mediated p53 degradation). Briefly: Adenovirus E4orf6 mediated p53 degradation in 293T cells (Rbx function). The experiment is classed as cell-based. Particulars: 4 μM TPEN. How it is done:
as §4, §5

Experiment [7] relates to NL4-3 virus infectivity in MAGI cells. Briefly: MAGI assay of virus infectivity, virus produced in 293T or 293T-A3G cells. Type of experiment: cell-based, HIV-1. The procedure:
MAGI cells were infected with wild-type or Vif deficient NL4-3 produced in the absence or presence of A3G and […] TPEN as indicated. Relative infectivity was calculated by setting wild type virus infectivity to 100% (lane 1).
293T and MAGI-CCR5 cells (Chackerian et al. (1997) J Virol 71, 3932-3939) were maintained and transfected or infected as previously described (Yu et al. (2003) (supra)). The MAGI assay was performed as described previously and the antibodies used in this study have been described: anti-HA antibody-agarose conjugate, anti-myc antibody-agarose conjugate, anti-Vif, anti-Elongin B, anti-Elongin C, anti-Myc, anti-HA, and anti-human ribosomal P antigens (Yu et al. (2003) (supra)). The anti-p53 mouse mAb was obtained from Oncogene Research Products (Cat. #OP03).
as §1
In order to assess the biological relevance of the zinc requirement in Vif-Cul5 interaction and assess whether A3G retained antiviral function in the presence of 7 μM TPEN, we studied the effect of TPEN on virus infectivity. MAGI cells were infected with wild type or Vif deficient virus produced in 293T or 293T-A3G cells in the presence of 7 μM TPEN or control DMSO. We set the infectivity of WT virus in the absence of A3G to 100%, and calculated the relative infectivity under all treated conditions (FIG. 4). As expected, in the presence of A3G and the absence of Vif, there was a drastic decrease of infectivity to 8% (FIG. 4, lane 4). However in the presence of Vif, A3G was neutralized resulting in 91% infectivity (FIG. 4, lane 3). One would expect zinc chelation to have an effect on virus infectivity independent of Vif function. We observed a modest decrease in infectivity, of about 15% even in the absence of A3G (FIG. 4, lanes, 5 and 6). […]

The next experiment concerns lentivirus. Briefly: Inhibition in a method of the invention (lentiviral infectivity).

“And” between values parts separate entries of the source, which are not always exact repeats. Equal values may be shown once.

T1 sequence (Q15370 whole entry): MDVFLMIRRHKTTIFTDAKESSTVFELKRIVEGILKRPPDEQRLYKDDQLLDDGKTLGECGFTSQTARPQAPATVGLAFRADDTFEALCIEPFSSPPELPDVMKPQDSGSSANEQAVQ
T1 sequence (Q15369 whole entry, further chain): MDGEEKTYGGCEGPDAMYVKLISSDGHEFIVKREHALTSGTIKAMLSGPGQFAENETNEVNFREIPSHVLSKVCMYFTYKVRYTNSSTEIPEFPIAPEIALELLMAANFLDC
T1 sequence (Q13951 whole entry, further chain): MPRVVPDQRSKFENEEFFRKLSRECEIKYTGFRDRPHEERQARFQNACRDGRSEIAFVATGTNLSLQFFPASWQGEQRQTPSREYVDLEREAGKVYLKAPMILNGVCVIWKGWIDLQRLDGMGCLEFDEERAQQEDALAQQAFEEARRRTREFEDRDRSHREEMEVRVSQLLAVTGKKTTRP
T1 sequence (P69723 whole entry): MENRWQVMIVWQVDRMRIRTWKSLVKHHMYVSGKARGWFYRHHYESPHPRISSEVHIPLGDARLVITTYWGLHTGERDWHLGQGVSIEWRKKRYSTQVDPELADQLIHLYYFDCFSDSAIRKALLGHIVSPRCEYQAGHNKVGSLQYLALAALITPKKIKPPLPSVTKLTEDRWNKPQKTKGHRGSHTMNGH
T3 sequence (Q9HC16 whole entry): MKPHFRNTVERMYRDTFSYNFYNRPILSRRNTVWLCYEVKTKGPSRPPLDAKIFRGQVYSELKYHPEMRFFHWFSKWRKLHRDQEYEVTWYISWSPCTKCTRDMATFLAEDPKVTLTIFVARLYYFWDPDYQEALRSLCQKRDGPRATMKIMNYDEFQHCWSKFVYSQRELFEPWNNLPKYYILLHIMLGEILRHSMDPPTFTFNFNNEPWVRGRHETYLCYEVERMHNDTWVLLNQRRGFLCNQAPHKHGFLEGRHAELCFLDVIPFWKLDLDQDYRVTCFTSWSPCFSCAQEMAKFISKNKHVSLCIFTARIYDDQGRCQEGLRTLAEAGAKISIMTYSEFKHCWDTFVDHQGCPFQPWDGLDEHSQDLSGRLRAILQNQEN
T3 sequence (P69723 whole entry): as the sequence (P69723 whole entry) above
T3 sequence (Q13951 whole entry, further chain): as the sequence (Q13951 whole entry, further chain) above
T3 sequence (Q15369 whole entry, further chain): as the sequence (Q15369 whole entry, further chain) above
T3 sequence (Q15370 whole entry, further chain): as the sequence (Q15370 whole entry) above

As usually defined, the IC50 is the point on the concentration scale where inhibition reaches its midpoint. High values mean a need for much substance, low ones inhibition by little substance. As to `c1ccc(CN(CCN(Cc2ccccn2)Cc2ccccn2)Cc2ccccn2)nc1` [TPEN, N,N,N′,N′-Tetrakis-(2-pyridylmethyl)ethylenediamine], in [1] (293T cells transfected with Vif-HA, cell lysates), the “effect on cellular Cul5 protein levels” value is “did not have any effect”. In addition, the 50% inhibitory concentration (IC50) in [1] (IC50, decrease of Cul5-Vif interaction, Vif-expressing 293T cells, increasing concentrations of TPEN, 12-h incubation) was ~1790 nM and 1790 nM. In addition, the “interaction of Vif with ElonginB and ElonginC” value in [1] (Vif-expressing 293T cells, increasing concentrations of TPEN) is “remained constant”. Moreover, in experiment [2], the “Cul5 co-immunoprecipitation with SIVagm Vif” value was “marked decrease”; the “ElonginB and ElonginC detected with SIVagm Vif” value is “equal amounts”. For the same molecule, in [3], the “Cul5 co-immunoprecipitation with SIVsyk Vif” value was “marked decrease”; the “ElonginB and ElonginC detected with SIVsyk Vif” value is “equal amounts”. The “interaction of SOCS-3 with Cul5” value at Cul5-SOCS-3 E3 ligase is “equal interaction”. The “A3G expression or stability in the absence of HIV-1 Vif” value in experiment [4] (4 μM TPEN) is listed as “no effect”. The “A3G degradation induced by HIV-1 Vif” value in experiment [4] (4 μM TPEN vs control vehicle) is reported as “abolished”. For the same molecule, the “effect on Vif-A3G interaction” value on Vif-A3G interaction is on record as “no effect”. In addition, in [5], the “A3G incorporation into virions in the presence of Vif” value is recorded as “enhancing incorporation” and the “cellular A3G protein levels in the presence of Vif” value is on record as “increased”. Further, the “p53 levels in the presence of E4orf6” value in [6] is recorded as “declined”. For the same molecule, the “decrease in infectivity in the absence of A3G” value in experiment [7] (7 μM TPEN on producer cells, relative to WT virus without A3G = 100%) was “about 15%”. Besides, the “infectivity loss in the presence of A3G and Vif” value in experiment [7] (7 μM TPEN on producer cells, relative to WT virus without A3G = 100%, 91% infectivity without TPEN) is reported as “about 87%”. Further, in [7] (7 μM TPEN, FIG. 4 lanes 7 and 8), the “effect on A3G function” value was “no effect”.
As to `Oc1ccc(O)c(Cl)c1` [Chloroquinol], in the experiment with lentivirus, the “effectiveness as inhibitor in a method of the invention” value is “not an effective inhibitor”.

For the origin of these results see patent US8338089B2, “Method of inhibiting lentiviral infectivity utilizing zinc chelation to inhibit Vif activity” (The Johns Hopkins University, priority 2006, dated 2012).
